Results: patent publication US20240279144A1, “CONTROL OF IODIDES IN ACETIC ACID PRODUCTION” (LyondellBasell Acetyls, LLC, priority 2023, published 2024)

What was measured:
[1] = FTIR P═O stretching frequency in acetonitrile as a gauge of basicity; type: physicochemical; details: lower frequency = higher basicity
Procedure: FTIR analyses were carried out on a Nicolet 6700 FTIR spectrometer equipped with a 3 bounce zinc selenide (ZnSe) attenuated total reflectance (ATR) crystal assembly. 0.1 mL aliquots of solution were removed from samples via micro-syringe. The solution was then placed on the crystal and an FTIR spectrum was obtained.

[2] = Vapor-liquid-equilibrium (VLE) test: iodide measured in the condensed vapor phase (suppression of HI volatilization); type: physicochemical
[3] = for solubility, bis(diphenylphosphino) series: acetonitrile or glacial acetic acid (GAA)
[4] = pKb (basicity) of Group 15 oxides
[5] = additive 0.05 molar, 0.1M HI, 1.3M H2O (2 wt %), GAA, approximately 140° C.
[6] = additive 0.1 molar, 0.1M HI, 1.3M H2O (2 wt %), GAA, approximately 140° C.

Row | Structure (SMILES) | P═O, cm^−1 [1] | HI (ppm in vapor) [2, 5] | HI (ppm in vapor) [2, 6] [ppm] | also measured
1 | O=P(c1ccccc1)(c1ccccc1)c1ccccc1 [TPPO, triphenylphosphine oxide, reference compound] | 1,191.6 cm^−1 | – | – | –
2 | O=P(CP(=O)(c1ccccc1)c1ccccc1)(c1ccccc1)c1ccccc1 [Bis-DPPMeO2, bis(diphenylphosphino)methane dioxide] | 1,197.7 cm^−1 | 7,889 ppm | 876 | –
3 | O=P(CCCP(=O)(c1ccccc1)c1ccccc1)(c1ccccc1)c1ccccc1 [Bis-DPPPrO2, bis(diphenylphosphino)propane dioxide] | 1,180.8 cm^−1 | 6,291 ppm | 421 | –
4 | c1ccc(P(CCCCP(c2ccccc2)c2ccccc2)c2ccccc2)cc1 | – | – | – | solubility, bis(diphenylphosphino) series [3]: insoluble
5 | c1ccc(P(CCCCCCP(c2ccccc2)c2ccccc2)c2ccccc2)cc1 | – | – | – | solubility, bis(diphenylphosphino) series [3]: insoluble
6 | O=[As](c1ccccc1)(c1ccccc1)c1ccccc1 [Ph3AsO, triphenyl arsine oxide] | – | – | – | pKb [4]: 4.15; HI (ppm in vapor) ([2]; Table 5, additive 0.25 molar, 1:1 molar ratio of additive to HI): 1,132 ppm; effectiveness in suppressing volatilization of HI relative to the CMPO ([2]; equivalent molarity, Table 5 conditions): about 7 times; solubility in GAA upon addition of HI ([3]; HI added): soluble; solubility in GAA ([3]; without added HI): soluble
7 | O=P(CCCP(=O)(c1ccccc1)c1ccccc1)(c1ccccc1)c1ccccc1 [Bis-DPPPrO] | 1,180.0 cm^−1 | – | – | –
8 | O=P(CCCCCP(=O)(c1ccccc1)c1ccccc1)(c1ccccc1)c1ccccc1 [Bis-DPPPeO2, bis(diphenylphosphino)pentane dioxide] | 1,178.2 cm^−1 | 5,392 ppm | 683 | –
9 | O=P(CP(=O)(C1CCCCC1)C1CCCCC1)(C1CCCCC1)C1CCCCC1 [Bis-DiCyPMeO2] | 1,160.1 cm^−1 | – | – | –
